{"source": "PubChem BioAssay (NCI)", "assay_in_all_cases": "NCI tumour cell line growth inhibition, 48 h", "key": {"[1]": {"tested_on": "BT-549 breast"}, "[2]": {"tested_on": "DU-145 prostate"}, "[3]": {"tested_on": "M14 melanoma"}, "[4]": {"tested_on": "MDA-MB-231 breast"}, "[5]": {"tested_on": "MDA-MB-435"}, "[6]": {"tested_on": "T-47D breast"}, "[7]": {"tested_on": "RXF-631 renal"}, "[8]": {"tested_on": "SN12K1 renal"}}, "note": "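48-hour exposure; five concentrations; linearly interpolated endpoints. TGI denotes the concentration required for complete inhibition of growth.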", "data": [{"smiles": "Cc1cc(S(N)(=O)=O)c(S/C(=N\\Nc2ccc([N+](=O)[O-])cc2)c2ccc(Cl)cc2)cc1Cl", "values": [{"measurement": "TGI", "setting": "[1]", "result": 35.4, "unit": "µM"}, {"measurement": "TGI", "setting": "[2]", "result": 5.51, "unit": "µM"}, {"measurement": "TGI", "setting": "[3]", "result": "> 100", "unit": "µM"}, {"measurement": "TGI", "setting": "[4]", "result": 8.27, "unit": "µM"}, {"measurement": "TGI", "setting": "[5]", "result": 6.88, "unit": "µM"}, {"measurement": "TGI", "setting": "[6]", "result": "> 100", "unit": "µM"}]}, {"smiles": "COc1cccc(NC(=O)N/C(=C/c2ccc(N(CCC#N)CCC#N)cc2)NC(=O)c2cc([N+](=O)[O-])ccc2Cl)c1", "values": [{"measurement": "TGI", "setting": "[7]", "result": "> 100", "unit": "µM"}]}, {"smiles": "O=S(=O)(O)c1ccc(N=Nc2ccc(N=Nc3ccc(/C=C/c4ccc(N=[N+]([O-])c5ccc(/C=C/c6ccc(N=Nc7ccc(N=Nc8ccc(S(=O)(=O)O)cc8)c8ccccc78)cc6S(=O)(=O)O)c(S(=O)(=O)O)c5)cc4S(=O)(=O)O)c(S(=O)(=O)O)c3)c3ccccc23)cc1", "values": [{"measurement": "TGI", "setting": "[8]", "result": "> 100", "unit": "µM"}]}]}
